Results published in ChEMBL document CHEMBL4321809, “Structure-Reactivity Relationships on Substrates and Inhibitors of the Lysine Deacylase Sirtuin 2 from Schistosoma mansoni (SmSirt2)” (J Med Chem, 2019).
Activity calls are given as the source filed them. No cut-off for these calls is given here.

Tests used:
[1] = Selectivity ratio of IC50 for N-terminal His6 tagged human sirtuin 2 (25 to 389 residues) to IC50 for recombinant Schistosoma mansoni sirtuin 2 (21 to 322 residues) expressed in Escherichia coli BL21(DE3) cells
[2] = target: T1, NAD-dependent protein deacetylase sirtuin-2 (Homo sapiens, UniProt Q8IXJ6); assay: Inhibition of N-terminal His6 tagged human sirtuin 2 (25 to 389 residues) assessed as inhibition of substrate demyristoylation using (Z)-(Myr)-Lys-AMC as susbtrate after 4 hrs in presence of NAD+ by homogeneous fluorescence based analysis
T1 sequence (Q8IXJ6 whole entry): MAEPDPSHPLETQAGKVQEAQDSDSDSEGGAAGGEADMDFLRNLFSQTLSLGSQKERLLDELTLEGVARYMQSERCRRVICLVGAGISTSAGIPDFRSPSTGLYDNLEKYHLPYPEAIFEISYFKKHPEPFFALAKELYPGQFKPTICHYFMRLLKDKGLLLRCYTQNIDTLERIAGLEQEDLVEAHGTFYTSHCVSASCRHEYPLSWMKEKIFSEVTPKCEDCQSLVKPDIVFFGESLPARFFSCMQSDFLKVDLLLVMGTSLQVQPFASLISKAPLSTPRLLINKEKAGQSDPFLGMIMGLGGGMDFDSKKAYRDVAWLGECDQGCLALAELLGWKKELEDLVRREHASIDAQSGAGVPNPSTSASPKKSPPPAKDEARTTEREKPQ

[3] = test system: Schistosoma mansoni; assay: Antiparasitic activity against adult Schistosoma mansoni Puerto Rico assessed as reduction in egg laying at 10 to 20 uM after 24 hrs by microscopic analysis; format: functional, organism-based
[4] = target: T2, NAD-dependent protein deacetylase (Schistosoma mansoni, UniProt T1VXA1); assay: Inhibition of recombinant Schistosoma mansoni sirtuin 2 (21 to 322 residues) expressed in Escherichia coli BL21(DE3) cells using ZMAL as substrate after 1 hr in presence of NAD+ by homogeneous fluorescence based analysis
T2 sequence (T1VXA1 whole entry): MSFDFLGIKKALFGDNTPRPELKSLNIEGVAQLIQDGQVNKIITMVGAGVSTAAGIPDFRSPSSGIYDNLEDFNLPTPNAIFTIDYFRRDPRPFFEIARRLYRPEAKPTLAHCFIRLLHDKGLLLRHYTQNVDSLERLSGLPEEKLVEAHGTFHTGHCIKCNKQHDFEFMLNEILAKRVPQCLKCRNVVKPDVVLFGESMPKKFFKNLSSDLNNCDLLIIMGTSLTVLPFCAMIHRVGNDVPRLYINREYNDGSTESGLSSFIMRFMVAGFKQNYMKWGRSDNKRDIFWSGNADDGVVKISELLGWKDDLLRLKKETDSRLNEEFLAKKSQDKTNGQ

[5] = target: T1, NAD-dependent protein deacetylase sirtuin-2; assay: Inhibition of N-terminal His6 tagged human sirtuin 2 (25 to 389 residues) using Cbz-Lys(acetyl)-AMC as substrate after 4 hrs in presence of NAD+ by homogeneous fluorescence based analysis
[6] = test system: Schistosoma mansoni; assay: Antiparasitic activity against adult Schistosoma mansoni Puerto Rico assessed as reduction in worm pairing at 10 to 20 uM after 24 hrs by microscopic analysis; format: functional, organism-based
[7] = test system: Schistosoma mansoni; assay: Antiparasitic activity against Schistosoma mansoni Puerto Rico assessed as reduction in parasite viability at 10 to 20 uM after 72 hrs by microscopic analysis; format: functional, organism-based
[8] = target: T3, NAD-dependent protein deacetylase (Schistosoma mansoni) (UniProt T1VXA1); assay: Inhibition of recombinant Schistosoma mansoni sirtuin 2 (21 to 322 residues) expressed in Escherichia coli BL21(DE3) cells assessed as inhibition of substrate demyristoylation at 20 uM using (Z)-(Myr)-Lys-AMC as susbtrate after 1 hr in presence of NAD+ by homogeneous fluorescence based analysis relative to control
T3 sequence (whole entry): T2 sequence (T1VXA1 whole entry)

[9] = target: T1, NAD-dependent protein deacetylase sirtuin-2; assay: Inhibition of N-terminal His6 tagged human sirtuin 2 (25 to 389 residues) assessed as inhibition of substrate demyristoylation at 20 uM using (Z)-(Myr)-Lys-AMC as susbtrate after 4 hrs in presence of NAD+ by homogeneous fluorescence based analysis relative to control
[10] = target: T3, NAD-dependent protein deacetylase (Schistosoma mansoni); assay: Inhibition of recombinant Schistosoma mansoni sirtuin 2 (21 to 322 residues) expressed in Escherichia coli BL21(DE3) cells at 25 uM using ZMAL as susbtrate after 1 hr in presence of NAD+ by homogeneous fluorescence based analysis relative to control
[11] = target: T1, NAD-dependent protein deacetylase sirtuin-2; assay: Inhibition of N-terminal His6 tagged human sirtuin 2 (25 to 389 residues) at 25 uM using Cbz-Lys(acetyl)-AMC as substrate after 4 hrs in presence of NAD+ by homogeneous fluorescence based analysis relative to control
[12] = target: T1, NAD-dependent protein deacetylase sirtuin-2; assay: Inhibition of N-terminal His6 tagged human sirtuin 2 (25 to 389 residues) at 50 uM using Cbz-Lys(acetyl)-AMC as substrate after 4 hrs in presence of NAD+ by homogeneous fluorescence based analysis relative to control
[13] = test system: HL-60; assay: Cytotoxicity against human HL60 cells at 10 uM after 72 hrs by Cell titer MTS dye based analysis; conditions: hl-60, 72 h
[14] = target: T4, NAD-dependent protein deacetylase sirtuin-3, mitochondrial (Homo sapiens, UniProt Q9NTG7); assay: Inhibition of human sirtuin 3 at 25 uM relative to control
T4 sequence (Q9NTG7 whole entry): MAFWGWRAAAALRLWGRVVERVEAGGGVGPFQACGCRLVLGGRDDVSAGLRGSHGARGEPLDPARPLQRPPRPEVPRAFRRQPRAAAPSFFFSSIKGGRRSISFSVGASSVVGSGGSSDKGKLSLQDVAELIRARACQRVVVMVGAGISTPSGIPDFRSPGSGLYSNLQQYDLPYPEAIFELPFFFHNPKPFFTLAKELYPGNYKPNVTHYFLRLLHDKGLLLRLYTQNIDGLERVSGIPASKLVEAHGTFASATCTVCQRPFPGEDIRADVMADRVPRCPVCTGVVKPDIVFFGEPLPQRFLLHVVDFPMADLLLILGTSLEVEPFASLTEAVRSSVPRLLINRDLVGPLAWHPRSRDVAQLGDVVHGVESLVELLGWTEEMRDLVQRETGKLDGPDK

[15] = target: T5, NAD-dependent protein deacetylase sirtuin-1 (Homo sapiens, UniProt Q96EB6); assay: Inhibition of human sirtuin 1 at 25 uM relative to control
T5 sequence (Q96EB6 whole entry): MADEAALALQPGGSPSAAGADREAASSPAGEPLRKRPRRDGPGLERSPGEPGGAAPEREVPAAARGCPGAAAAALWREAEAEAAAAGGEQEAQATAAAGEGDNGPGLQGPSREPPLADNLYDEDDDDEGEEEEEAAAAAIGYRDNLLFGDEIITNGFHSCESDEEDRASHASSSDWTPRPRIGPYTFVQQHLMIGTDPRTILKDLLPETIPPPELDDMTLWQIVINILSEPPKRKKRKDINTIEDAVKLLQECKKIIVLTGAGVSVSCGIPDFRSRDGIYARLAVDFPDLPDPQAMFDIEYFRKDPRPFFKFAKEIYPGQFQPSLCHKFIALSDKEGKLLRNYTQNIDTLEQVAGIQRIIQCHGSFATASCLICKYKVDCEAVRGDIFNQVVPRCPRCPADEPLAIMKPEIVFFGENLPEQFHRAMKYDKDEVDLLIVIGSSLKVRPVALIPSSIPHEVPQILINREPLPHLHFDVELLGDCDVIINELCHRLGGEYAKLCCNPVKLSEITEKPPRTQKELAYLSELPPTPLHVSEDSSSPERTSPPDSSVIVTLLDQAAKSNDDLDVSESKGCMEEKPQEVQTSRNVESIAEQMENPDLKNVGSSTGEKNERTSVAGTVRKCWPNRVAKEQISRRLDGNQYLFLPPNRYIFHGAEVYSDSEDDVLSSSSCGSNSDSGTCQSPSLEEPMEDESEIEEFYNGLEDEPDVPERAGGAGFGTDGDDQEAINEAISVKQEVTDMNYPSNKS

[16] = target: T3, NAD-dependent protein deacetylase (Schistosoma mansoni); assay: Inhibition of recombinant Schistosoma mansoni sirtuin 2 (21 to 322 residues) expressed in Escherichia coli BL21(DE3) cells assessed as inhibition of substrate demyristoylation at 20 uM using (Z)-(Myr)-Lys-AMC as substrate relative to control
[17] = target: T3, NAD-dependent protein deacetylase (Schistosoma mansoni); assay: Inhibition of recombinant Schistosoma mansoni sirtuin 2 (21 to 322 residues) expressed in Escherichia coli BL21(DE3) cells assessed as inhibition of substrate deacetylation at 20 uM using ZMAL as substrate relative to control
[18] = target: T1, NAD-dependent protein deacetylase sirtuin-2; assay: Inhibition of human sirutin 2 assessed as inhibition of susbtrate demyristoylation at 20 uM using (Z)-(Myr)-Lys-AMC as substrate relative to control

IC50 [2] [µM] | IC50 [4] [µM] | inhibition [8] [%] | inhibition [10] [%] | inhibition at 25 µM [11] [%] | inhibition at 25 µM [14] [%] | inhibition at 25 µM [15] [%] | SMILES | inhibition [3] | inhibition [6] | inhibition [7] | Activity [13] | further results
15.6 | 2 | < 15 | – | – | – | – | COc1cc(OC)cc(Sc2ccc(C(c3ccccc3)N(C)c3ncc4c(N)nc(N)nc4n3)cc2)c1 (centres undefined) | Active | Active | Active | – | Ratio IC50 [1]: 10; IC50 [5]: 21.5 µM
– | – | < 15 | 41.9 | < 15 | – | – | COc1ccc(C(=O)Nc2ccc(C(C)N(C)c3ncc4c(N)nc(N)nc4n3)cc2)cc1 (centres undefined) | – | – | – | – | inhibition at 20 µM [9]: < 15%
25.1 | 4.3 | 15 | – | 27.9 | < 15 | < 15 | COc1cc(OC)cc(Sc2ccc(C(C)N(C)c3ncc4c(N)nc(N)nc4n3)cc2)c1 (centres undefined) | Active | Active | Active | Non-Toxic | –
– | – | – | 46.2 | 61.7 | < 15 | < 15 | COc1ccc(COc2ccc(C(C)N(C)c3ncc4c(N)nc(N)nc4n3)cc2)cc1 (centres undefined) | Active | Active | Active | Toxic | –
– | – | < 15 | 49 | < 15 | – | – | CSc1ccc(Oc2ccc(C(C)N(C)c3ncc4c(N)nc(N)nc4n3)cc2)cc1 (centres undefined) | – | – | – | – | inhibition at 20 µM [9]: 38.1%
– | – | – | – | – | – | – | Cc1cc(C)nc(SCC(=O)Nc2ncc(Cc3cccc4ccccc34)s2)n1 | – | – | – | – | inhibition [16]: < 15%; inhibition [17]: < 15%; inhibition at 20 µM [18]: < 15%
13.1 | 3.3 | < 15 | – | 29.6 | < 15 | < 15 | COc1cc(OC)cc(Oc2ccc(C(c3ccccc3)N(C)c3ncc4c(N)nc(N)nc4n3)cc2)c1 (centres undefined) | Active | Active | Active | Non-Toxic | –
– | 12.8 | – | – | – | – | – | CCC(c1ccc(Oc2ccc(OC)cc2)cc1)N(C)c1ncc2c(N)nc(N)nc2n1 (centres undefined) | – | – | – | – | IC50 [5]: 36.7 µM
– | – | – | < 15 | < 15 | < 15 | < 15 | COc1ccc(Oc2ccc(CN(C)c3ncc4c(N)nc(N)nc4n3)cc2)cc1 | Active | Active | Active | Toxic | –

SMILES | IC50 [2] [µM] | IC50 [4] [µM] | inhibition [8] [%] | inhibition [10] [%] | inhibition at 25 µM [11] [%] | inhibition at 25 µM [14] [%] | inhibition at 25 µM [15] [%] | inhibition [3] | inhibition [6] | inhibition [7] | Activity [13] | further results
O=C(c1cc2cc(Cl)ccc2[nH]1)N1CCCCC1c1cccnc1 (centres undefined) | – | 18.2 | – | – | – | – | – | – | – | – | – | inhibition at 50 µM [12]: < 15%
